Patent publication US9180187B2, “Medicament for treating and/or preventing cancer” (TORAY INDUSTRIES, INC., priority 2010, dated 2015)
Like-named read-outs stand apart in the source and are kept apart here.

B1: monoclonal antibody #1: mouse anti-CAPRIN-1 monoclonal antibody; heavy chain variable region SEQ ID NO: 43, light chain variable region SEQ ID NO: 47 (antibody, listed as Mus musculus, V domains shown)
VH: MEWSGVFIFLLSGTAGVLSEVQLHQFGAELVKPGASVKISCKASGYTFTDYNMDWVKQSHGKSLEWIGDINPNYDSTSYNQKFKGKATLTVDKSSSTAYMELRSLTSEDTAVYYCARSRSYDYEGFAYWGQGTLVTVSAAKTTPPSVY
VL: MSVLTQVLGLLLLWLTGARCDIQMTQSPASLSASVGETVTITCRASGNIHNYLAWYQQKQGKSPQLLVYNAKTLADGVPSRFSGSGSGTQYSLKINSLQPEDFGSYYCQHFWSTLTFGAGTKLELKRADAAPTVSNPYD
B2: monoclonal antibody #2: mouse anti-CAPRIN-1 monoclonal antibody; heavy chain variable region SEQ ID NO: 43, light chain variable region SEQ ID NO: 53 (antibody, listed as Mus musculus, V domains shown)
VH: MEWSGVFIFLLSGTAGVLSEVQLHQFGAELVKPGASVKISCKASGYTFTDYNMDWVKQSHGKSLEWIGDINPNYDSTSYNQKFKGKATLTVDKSSSTAYMELRSLTSEDTAVYYCARSRSYDYEGFAYWGQGTLVTVSAAKTTPPSVY
VL: AVLRCSRGLLVIWISDIQLTQSPSSLAVTAGEKVTMSCKSSQSLLWSVNQKNYLSWYQQKQRQPPKLLIYGASIRESWVPDRFTGSGSGTDFTLTISNVHAEDLAVYYCQHNHGSFLPSRSEQVPSWRSNNR
B3: monoclonal antibody #6: mouse anti-CAPRIN-1 monoclonal antibody; heavy chain variable region SEQ ID NO: 73, light chain variable region SEQ ID NO: 77 (antibody, listed as Mus musculus, V domains shown)
VH: DILQASGYSFTGYTMNWVKQSHGKNLEWIGLINPYNGGTSYNQKFKGKATLTVDKSSSTAYMELLSLTSEDSAVYYCARWGVWSAMDYWGQGTTVTVSSK
VL: DRVSITCKASQNVRTAVAWYQQKPRQSPKALIYLASNRDTGLPDRFPGRGSGTDFTLNITNVQSEDLEDYFCLQHCNYPNEFRGCTKVPI

Assays:
[1] = system: MCF-7 human breast cancer cell line; assay: 50% inhibitory concentration of antitumor agents, living cell count with trypan blue; assay type: cell-based; settings: MCF7, 48 h, read-out: 50% inhibitory concentration of antitumor agents against MCF-7
Experimental: The cell line was prepared to 1×10^5 cells/ml and then cultured on a 6-well plate under conditions of 37° C. and 5% CO2 for one day. Then, the cell was treated with each antitumor agent at final concentrations of 0.001 μM, 0.01 μM, 0.1 μM, 1.0 μM, and 10 μM, followed by 2-days culture under conditions of 37° C. and 5% CO2. After removal of the culture medium, the cell was washed twice with PBS(−), to which 0.25% Trypsin-EDTA was then added in order to detach the cell from the plate. The thus detached cell was suspended with PBS(−) to a volume of 100 to which 10 μl of 0.4% trypan blue stock solution was then added, and the mixture was measured for counts of living cells using a hemocytometer. The rate of living cells in case that the cell was treated with each antitumor agent (i.e., a chemotherapeutic) was calculated, wherein the number of living cells in case that the cell was not treated with each antitumor agent was designated at 100%. 50% inhibitory concentration was roughly estimated based on the obtained values, and each antitumor agent was prepared to have a concentration around the determined 50% inhibitory concentration, and thereafter procedures similar to the above were further performed in order to calculate a more specific 50% inhibitory concentration.
MCF-7 cell line was prepared to 1×10^5 cells/mL, and then cultured on a 6-well plate under conditions of 37° C. and 5% CO2 for one day. […] After removal of the culture medium, the cell was washed with PBS(−) twice, to which 0.25% Trypsin-EDTA was added in order to detach the cell from the plate. The detached cell was suspended in PBS(−) to a volume of 100 μl, to which 10 μl of 0.4% trypan blue stock solution was further added. The mixture was measured for counts of living cells using a hemocytometer. […] The IC50 values of respective antitumor agents in each type of cancer cells were calculated by using the same procedures.

[2] = system: human breast cancer cell line MDA-MB-157; assay: ADCC activity, chromium-51 release; assay type: cell-based; settings: 1 μg antibody, mouse lymphocytes 2×10^5 cells, 10^3 target cells, 4 hours
Experimental: The above-selected anti-CAPRIN-1 monoclonal antibodies #1 to #11 were evaluated for their cytotoxic activities against cancer cells (ADCC activity). Hybridomas producing the monoclonal antibodies #1 to #11 were each cultured using hybridoma SFM medium (Invitrogen). The thus obtained supernatant was purified using Hitrap ProteinA Sepharose FF (GE HealthCare), replaced with PBS(−), and then filtered through 0.22 μm filter (Millipore). The obtained filtrates were used as antibodies for assay. The human breast cancer cell line MDA-MB-157 (10^6 cells) was collected in a 50-ml centrifuge tube, to which 100 μCi chromium(Cr)-51 was then added, and incubated at 37° C. for 2 hours. Subsequently, the cells were washed 3 times with RPMI1640 medium containing 10% FBS, and then dispensed into each well of a 96-well V-bottom plate at 10^3 cells per well. The thus obtained cells are used as target cell. The above purified antibodies (1 μg each) were added to the cells. Separately, mouse lymphocytes separated from the mouse spleen were further added (2×10^5 cells) and then cultured under conditions of 37° C. and 5% CO2 for 4 hours. After culture, the amount of chromium(Cr)-51 released from cytotoxically impaired tumor cells in a culture supernatant was measured, so that the ADCC activity of each anti-CAPRIN-1 antibody against cancer cells was calculated. […] On the other hand, similar procedures were performed using the monoclonal antibodies (which were prepared in Example 2) reactive with the CAPRIN-1 protein itself, but not reactive with the surface of cancer cells, no cytotoxic activity was observed (see FIG. 1). […] Similarly, the anti-CAPRIN-1 antibodies were examined for ADCC activity against other human cancer cell lines including glioma cell lines (T98G and U373), lung cancer cell lines (A549 and QG56), renal cancer cell lines (Caki-1 and ACHN), a uterine cervix cancer cell line (SW756), a bladder cancer cell line (T24), an esophageal cancer cell line (KYSE180), gastric cancer cell lines (MNK28 and MNK45), a colorectal cancer cell line (SW480), a leukemia cell line (AML5), and a lymphoma cell line (Ramos).

[3] = system: MCF-7 human breast cancer cell line; assay: In vivo combination therapy in tumor-bearing nude mice transplanted with MCF-7; settings: experimental section 1 (anti-CAPRIN-1 antibody = #2, 5 mg/kg i.p.), day 26, mouse PBMC given to all groups
Experimental: IgG2b (R&D systems, catalog No. MAB11291)) were administered in combination, a group to which an antitumor agent and anti-CAPRIN-1 monoclonal antibody were administered in combination, and a group to which control (PBS(−) was administered. In addition, mouse PBMC was administered to all the administration groups. […] PBMC separated from Balb/c mouse spleen was intravenously administered to each mouse at 1×10^7 cells/0.2 mL (RPMI1640) on days 0, 8, and 15 after the start of the experiment. […] PBMC separated from Balb/c mouse spleen was intravenously administered to each mouse at 1×10^7 cells/0.2 mL (RPMI1640) on days 0, 8, and 15 after the start of the experiment. Paclitaxel was intraperitoneally administered to each of 5 tumor-bearing mice at 15 mg/kg/shot on days 0 and 3 after the start of the experiment. PBMC separated from Balb/c mouse spleen was intravenously administered to each mouse at 1×10^7 cells/0.2 mL (RPMI1640) on days 0, 8, and 15 after the start of the experiment. Docetaxel was intraperitoneally administered to each of 5 tumor-bearing mice at 10 mg/kg/shot on days 0 and 3 after the start of the experiment. PBMC separated from Balb/c mouse spleen was intravenously administered to each mouse at 1×10^7 cells/0.2 mL (RPMI1640) on days 0, 8, and 15 after the start of the experiment. […]

[4] = MCF-7, 2-days culture with agent, living cells counted with trypan blue

Molecule | IC50 [1, 4] | ADCC activity (cytotoxic activity) against MDA-MB-157 [2] | also measured
O=P1(N(CCCl)CCCl)NCCCO1 (centres unmarked) [Cyclophosphamide, cyclophosphamide] | – | – | IC50 [1]: 30 nM
CC(=O)O[C@@]12CO[C@@H]1C[C@H](O)[C@@]1(C)C(=O)[C@H](O)C3=C(C)[C@@H](OC(=O)[C@H](O)[C@@H](NC(=O)OC(C)(C)C)c4ccccc4)C[C@@](O)([C@@H](OC(=O)c4ccccc4)[C@H]21)C3(C)C [Docetaxel, docetaxel] | 0.1 nM | – | –
CC(=O)O[C@H]1C(=O)[C@@]2(C)[C@H]([C@H](OC(=O)c3ccccc3)[C@]3(O)C[C@H](OC(=O)[C@H](O)[C@@H](NC(=O)c4ccccc4)c4ccccc4)C(C)=C1C3(C)C)[C@]1(OC(C)=O)CO[C@@H]1C[C@@H]2O [Paclitaxel, paclitaxel] | 10 nM | – | –
CCC1=C[C@@H]2CN(C1)Cc1c([nH]c3ccccc13)[C@@](C(=O)OC)(c1cc3c(cc1OC)N(C)[C@H]1[C@@](O)(C(=O)OC)[C@H](OC(C)=O)[C@]4(CC)C=CCN5CC[C@]31[C@@H]54)C2 [Vinorelbine, vinorelbine] | 20 nM | – | –
B1 | – | 22.1% | –
B2 | – | 29.1% | tumor volume relative to PBS(−) control group designated at 100% [3]: about 56%
B3 | – | 30.2% | –
